Here are results for 11 compounds from ChEMBL document CHEMBL1138749, “N-Phenyl-4-pyrazolo[1,5-b]pyridazin-3-ylpyrimidin-2-amines as potent and selective inhibitors of glycogen synthase kinase 3 with good cellular efficacy” (J Med Chem, 2004).

A word on the EC50: it is the concentration that produces a half-maximal response. The low end stands for a more potent agent, the high end for a less potent agent. One may read the IC50 as the concentration needed to halve the response being measured. High values mean weaker potency, low ones greater potency.

SMILES strings stand for the structures. Some results are limits rather than exact numbers.

Sequence of Glycogen synthase kinase-3 beta (Rattus norvegicus, UniProt P18266) (P18266 whole entry): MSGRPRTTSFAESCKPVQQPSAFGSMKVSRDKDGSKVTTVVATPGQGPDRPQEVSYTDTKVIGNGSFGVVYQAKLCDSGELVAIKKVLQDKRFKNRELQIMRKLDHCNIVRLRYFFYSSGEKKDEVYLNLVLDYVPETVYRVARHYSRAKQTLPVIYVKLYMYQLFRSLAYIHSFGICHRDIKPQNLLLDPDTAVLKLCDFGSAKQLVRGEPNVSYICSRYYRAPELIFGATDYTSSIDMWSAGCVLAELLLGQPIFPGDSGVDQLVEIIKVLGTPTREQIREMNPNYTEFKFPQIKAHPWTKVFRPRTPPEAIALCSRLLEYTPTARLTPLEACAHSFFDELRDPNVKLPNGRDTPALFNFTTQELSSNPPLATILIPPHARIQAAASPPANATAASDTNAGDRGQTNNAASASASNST

The first experiment addresses Glycogen synthase kinase-3 beta (Rattus norvegicus, UniProt P18266). As to the kind of experiment: Effective concentration to increase glycogen deposition in rat skeletal muscle L6 myoblast cells. It counts as functional, cell-based.
In turn, `Cc1ccc2c(-c3ccnc(Nc4ccccc4)n3)c(-c3ccccc3)nn2n1` had a 50% effective concentration (EC50) of 3.6 µM. This lies in the single-digit micromolar range.
Still for that read-out and setting: the same measure for `Fc1ccc(-c2nn3ncccc3c2-c2ccnc(Nc3cccc(C(F)(F)F)c3)n2)cc1`: 2.8 µM.
Same read-out and setting: the same measure for `FC(F)(F)c1cccc(Nc2nccc(-c3c(-c4ccccc4)nn4ncccc34)n2)c1`: 2.1 µM; for `COc1ccc(Nc2nccc(-c3cnn4ncccc34)n2)cc1OC` [PYRAZOLOPYRIDAZINE 2]: 1.5 µM; for `Cc1ccc2c(-c3ccnc(Nc4cccc(C(F)(F)F)c4)n3)c(-c3ccc(F)cc3)nn2n1`: 6.8 µM.
As to `c1ccc(Nc2nccc(-c3c(-c4ccccc4)nn4ncccc34)n2)cc1`, the half-maximal effective concentration (EC50) worked out at 1.6 µM.
Turning to `Cc1ccc2c(-c3ccnc(Nc4ccc(F)c(F)c4)n3)c(-c3ccccc3)nn2n1`, the EC50 is 3.4 µM.
Same read-out and setting: the same measure for `Clc1cc(Cl)cc(Nc2nccc(-c3cnn4ncccc34)n2)c1`: 1 µM; for `Fc1ccc(Nc2nccc(-c3c(-c4ccccc4)nn4ncccc34)n2)cc1F`: 4.2 µM; for `Fc1cc(F)cc(Nc2nccc(-c3cnn4ncccc34)n2)c1`: 1 µM.
Turning to `COc1cc(Nc2nccc(-c3cnn4ncccc34)n2)cc(C(F)(F)F)c1`, the EC50 stood at 1.2 µM.

The target of a further experiment is Glycogen synthase kinase-3 beta (Homo sapiens, UniProt P49841).
Sequence of Glycogen synthase kinase-3 beta (Homo sapiens, UniProt P49841) (P49841 whole entry): as the sequence (P18266 whole entry) above, with M240V, P390T, A392T, T400A, A402T counted along it
Description: Binding affinity for human glycogen synthase kinase 3 beta
For the compound `Cc1ccc2c(-c3ccnc(Nc4ccccc4)n3)c(-c3ccccc3)nn2n1`, half-maximal inhibition (IC50) was put at 0.05 µM.
On the same count and under the same terms, the same measure for `Fc1ccc(-c2nn3ncccc3c2-c2ccnc(Nc3cccc(C(F)(F)F)c3)n2)cc1`: 0.02 µM; for `FC(F)(F)c1cccc(Nc2nccc(-c3c(-c4ccccc4)nn4ncccc34)n2)c1`: 0.01 µM; for `COc1ccc(Nc2nccc(-c3cnn4ncccc34)n2)cc1OC` [PYRAZOLOPYRIDAZINE 2]: 0.01 µM.
As for `Cc1ccc2c(-c3ccnc(Nc4cccc(C(F)(F)F)c4)n3)c(-c3ccc(F)cc3)nn2n1`, the IC50 is 0.02 µM.
Regarding `c1ccc(Nc2nccc(-c3c(-c4ccccc4)nn4ncccc34)n2)cc1`, 0.01 µM corresponded to half-maximal inhibition (IC50).
Take `Cc1ccc2c(-c3ccnc(Nc4ccc(F)c(F)c4)n3)c(-c3ccccc3)nn2n1`: the IC50 came out at 0.03 µM. Against the preceding compound, the IC50 is about 3-fold higher.
Turning to `Fc1ccc(Nc2nccc(-c3c(-c4ccccc4)nn4ncccc34)n2)cc1F`, the half-inhibitory concentration (IC50) stood at 0.01 µM.

The target in another experiment is Cyclin-dependent kinase 2 (Homo sapiens, UniProt P24941).
`Fc1ccc(-c2nn3ncccc3c2-c2ccnc(Nc3cccc(C(F)(F)F)c3)n2)cc1` gave an IC50 of more than 20 µM.
Take `FC(F)(F)c1cccc(Nc2nccc(-c3c(-c4ccccc4)nn4ncccc34)n2)c1`: the IC50 is more than 20 µM.
`COc1ccc(Nc2nccc(-c3cnn4ncccc34)n2)cc1OC` [PYRAZOLOPYRIDAZINE 2] came in with an IC50 of 0.05 µM.
For `Cc1ccc2c(-c3ccnc(Nc4cccc(C(F)(F)F)c4)n3)c(-c3ccc(F)cc3)nn2n1`, the IC50 is more than 20 µM.
`c1ccc(Nc2nccc(-c3c(-c4ccccc4)nn4ncccc34)n2)cc1` returned an IC50 of 3.98 µM.
`Cc1ccc2c(-c3ccnc(Nc4ccc(F)c(F)c4)n3)c(-c3ccccc3)nn2n1`: the IC50 is more than 20 µM.
For `Clc1cc(Cl)cc(Nc2nccc(-c3cnn4ncccc34)n2)c1`, the IC50 turned out to be 0.31 µM.
The same measure, in the same setting: the same measure for `Fc1ccc(Nc2nccc(-c3c(-c4ccccc4)nn4ncccc34)n2)cc1F`: more than 20 µM; for `Fc1cc(F)cc(Nc2nccc(-c3cnn4ncccc34)n2)c1`: 0.001 µM; for `COc1cc(Nc2nccc(-c3cnn4ncccc34)n2)cc(C(F)(F)F)c1`: 0.01 µM.
